Literature values, collected in patent US20080221033A1, “Monitoring of Cardiac Natriuretic Peptides During Diagnosis, Management, and Treatment of Cardiac Diseases” (Koninklijke Philips Electronics N. V., priority 2005, published 2008).
Like-named read-outs stand apart in the source and are kept apart here.

Legend:
[1] = test system: patients hospitalized with congestive heart failure
[2] = patients hospitalized with congestive heart failure

Molecule: nesiritide
- effectiveness versus parenteral vasodilators and inotropic agents ([1]; decompensated heart failure, vs nitroprusside, nitroglycerin, dobutamine, milrinone): more effective
- onset of action ([1]; human, in vivo): 15 min
- tolerability versus parenteral vasodilators and inotropic agents ([1]; human, in vivo): better tolerated
- pulmonary arterial pressure [1, 2]: reduces
- pulmonary capillary wedge pressure [1, 2]: reduces
- right atrial pressure [1, 2]: reduces
- systemic vascular resistance [1, 2]: reduces
- onset of therapeutic action ([1]; typical cardiac patients): about 15 minutes

Molecule: brain natriuretic peptide [BNP]
- terminal half-life in the bloodstream (in words) (in vivo): a few minutes to a few hours

B1: N-terminal pro-BNP (protein, UniProt P16860 27-102, looked up)
NT-proBNP: HPLGSPGSASDLETSGLQEQRNHLQGKLSELQVEQTSLEPLQESPRPTGVWKSREVATEGIRGHRKMVLYTLRAPR
modifications: NT-proBNP
- terminal half-life in the bloodstream (in words) (bloodstream, 'believed to be'): about a month or longer
